Among the data in patent US20230183216A1, “PYRIDIZIN-3(2H)-ONE DERIVATIVES” (Gilead Sciences, Inc., priority 2021, published 2023) are EC50 and IC50 values, retold here.

Test [1] concerns STAT1 (phosphorylated at Tyr701) in NCI-H1373 cells. As to the kind of experiment: Phospho-STAT1 (Tyr701) LANCE Ultra TR-FRET Detection Assay. The format is cell-based. To be noted: Homo sapiens, 48 hours, induction of pSTAT1, normalized to 10 uM positive control and DMSO, 4-parameter fit, read-out: NH1373 pSTAT1 EC50. An outline of the steps:
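Endogenous STAT1 Tyr701 phosphorylation induced by compound was measured after seeding 30,000 cells/well onto compound-spotted plates and incubating 48 h at 37 °C, 5% CO2. Lysates were incubated with a sandwich antibody pair overnight at room temperature, and TR-FRET emission was read at 665 and 620 nm.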

Another test has as its target T1, PARP7 (Homo sapiens, UniProt Q7Z3E1).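 Also: MSD light signal quantifying PARP7 captured by a plate-immobilized probe, read after 1.5 h equilibration plus 1.5 h with SULFO-TAG anti-GST antibody at room temperature.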
T1 sequence (Q7Z3E1 1-657): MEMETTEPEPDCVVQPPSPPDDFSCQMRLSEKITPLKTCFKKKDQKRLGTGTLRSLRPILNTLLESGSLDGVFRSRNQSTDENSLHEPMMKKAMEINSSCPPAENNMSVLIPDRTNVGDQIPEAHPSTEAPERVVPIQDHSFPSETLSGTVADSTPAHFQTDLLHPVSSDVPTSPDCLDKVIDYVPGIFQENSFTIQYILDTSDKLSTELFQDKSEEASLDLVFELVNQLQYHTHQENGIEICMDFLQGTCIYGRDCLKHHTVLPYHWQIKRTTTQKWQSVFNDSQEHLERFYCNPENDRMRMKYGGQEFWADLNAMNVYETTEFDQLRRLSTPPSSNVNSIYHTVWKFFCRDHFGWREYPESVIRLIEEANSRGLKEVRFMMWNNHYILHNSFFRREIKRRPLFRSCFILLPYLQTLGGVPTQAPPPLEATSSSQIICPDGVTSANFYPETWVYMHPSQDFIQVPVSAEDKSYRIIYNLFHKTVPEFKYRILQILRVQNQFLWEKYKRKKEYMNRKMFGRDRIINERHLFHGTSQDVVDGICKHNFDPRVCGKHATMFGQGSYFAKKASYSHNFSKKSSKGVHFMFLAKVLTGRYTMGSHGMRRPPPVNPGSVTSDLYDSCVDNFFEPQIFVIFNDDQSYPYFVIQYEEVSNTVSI
As to the kind of experiment: biochemical.

For orientation: EC50 means the concentration needed to bring the measured effect to its halfway point. What is called IC50 is the concentration needed to halve the response being measured. Read a high IC50 as weaker potency.

Description for PARP7: Probe Displacement Assay for PARP7 Displacement of a biotinylated probe (RBN011147; Wigle et al., Cell Chemical Biology, 2020, pp. 877-887) from the PARP7 NAD+-binding site was measured in vitro using a Mesoscale Discovery electrochemiluminescent assay. […] Next, 10 μl of 10 nM PARP7 protein incubated for 1 hour at room temperature with a dose response curve of each test compound in a Greiner LDV polypropylene plate (#781201) is added to the MSD plate containing the immobilized probe. The interaction is allowed to reach equilibrium for 1.5 hours, and then 10 ul of SULFO-TAG labeled anti-GST antibody (Cat #R32AA-1) is added to each well and allowed to incubate for an additional 1.5 hours at room temperature. Finally, 10 μl of MSD read buffer T (4×, Cat. #R92C-1) is added to each well using a Bravo liquid handler to prevent air bubbles in the wells, and the plates are subsequently read in an MSD instrument. Light intensity is then measured to quantify the amount of PARP7 bound to the immobilized probe on the plate.

As for `O=C(CCC[C@H]1CCCc2c1n[nH]c(=O)c2C(F)(F)F)N1CCN(c2ncc(C(F)(F)F)cn2)CC1` (single isomer, unassigned) [Example 77], the EC50 in test [1] is 523 nM. This compound came in with an IC50 at PARP7 of 1.41 nM.

As to `O=C(C[C@@H]1CCN(c2cc(C(F)(F)F)c(=O)[nH]n2)C1)N1CCN(c2ncc(C(F)(F)F)cn2)CC1` [Example 67, 3-[(3S)-3-[2-oxo-2-[4-[5-(trifluoromethyl)pyrimidin-2-yl]piperazin-1-yl]ethyl]pyrrolidin-1-yl]-5-(trifluoromethyl)-1H-pyridazin-6-one], in test [1], the EC50 amounted to 2270 nM. On PARP7, this compound yielded a concentration for half-maximal inhibition (IC50) of 0.848 nM.

As for `O=C(CCCNc1cc(C(F)(F)F)c(=O)[nH]n1)N1CCN(c2ncc(C(F)(F)F)cn2)CC1` [Example 15, 6-((4-oxo-4-(4-(5-(trifluoromethyl)pyrimidin-2-yl)piperazin-1-yl)butyl)amino)-4-(trifluoromethyl)pyridazin-3(2H)-one], the EC50 in test [1] is 71.9 nM. Moreover, the IC50 at PARP7 was 0.263 nM.

As to `O=C([C@@H](O)CCNc1cc(C(F)(F)F)c(=O)[nH]n1)N1CCN(c2ncc(C(F)(F)F)cn2)CC1` [Example 25, (S)-6-((3-hydroxy-4-oxo-4-(4-(5-(trifluoromethyl)pyrimidin-2-yl)piperazin-1-yl)butyl)amino)-4-(trifluoromethyl)pyridazin-3(2H)-one], the 50% effective concentration (EC50) in test [1] amounted to 21.3 nM. Further, the IC50 at PARP7 is 0.141 nM.

Take `O=C(CCNc1cc(C(F)(F)F)c(=O)[nH]n1)N1CCN(c2ncc(C(F)(F)F)cn2)CC1` [Example 17, 6-((3-oxo-3-(4-(5-(trifluoromethyl)pyrimidin-2-yl)piperazin-1-yl)propyl)amino)-4-(trifluoromethyl)pyridazin-3(2H)-one]: the concentration giving a half-maximal response (EC50) in test [1] amounted to 973 nM. For the same compound, the IC50 against PARP7 stood at 12.1 nM.

As for `O=C(c1cccc(CNc2cc(C(F)(F)F)c(=O)[nH]n2)c1)N1CCN(c2ncc(C(F)(F)F)cn2)CC1` [Example 19, 4-(trifluoromethyl)-6-((3-(4-(5-(trifluoromethyl)pyrimidin-2-yl)piperazine-1-carbonyl)benzyl)amino)pyridazin-3(2H)-one], in test [1], the EC50 was at least 10000 nM. The same compound returned an IC50 at PARP7 of 16.3 nM.

On to `[2H]C1([2H])N(C(=O)CCCNc2cc(C(F)(F)F)c(=O)[nH]n2)C([2H])([2H])C([2H])([2H])N(c2ncc(C(F)(F)F)cn2)C1([2H])[2H]` [Example 51, 3-[[4-[2,2,3,3,5,5,6,6-octadeuterio-4-[5-(trifluoromethyl)pyrimidin-2-yl]piperazin-1-yl]-4-oxo-butyl]amino]-5-(trifluoromethyl)-1H-pyridazin-6-one], for which the EC50 in test [1] was determined as 123 nM. It took 0.165 nM to reach half-maximal inhibition at PARP7 (IC50).

As to `O=C(N1CCN(c2ncc(C(F)(F)F)cn2)CC1)C(F)(F)CCNc1cc(C(F)(F)F)c(=O)[nH]n1` [Example 72, 3-[[3,3-difluoro-4-oxo-4-[4-[5-(trifluoromethyl)pyrimidin-2-yl]piperazin-1-yl]butyl]amino]-5-(trifluoromethyl)-1H-pyridazin-6-one], the EC50 in test [1] was found to be 206 nM. This compound also came in with an IC50 on PARP7 of 0.497 nM.

On to `O=C([C@@H]1Cc2ccccc2N1c1cc(C(F)(F)F)c(=O)[nH]n1)N1CCN(c2ncc(C(F)(F)F)cn2)CC1` [Example 49, 5-(trifluoromethyl)-3-[(2S)-2-[4-[5-(trifluoromethyl)pyrimidin-2-yl]piperazine-1-carbonyl]indolin-1-yl]-1H-pyridazin-6-one], for which, in test [1], the EC50 worked out at 858 nM. In addition, the IC50 against PARP7 is 1.1 nM.

Regarding `O=C(CCCCNc1cc(C(F)(F)F)c(=O)[nH]n1)N1CCN(c2ncc(C(F)(F)F)cn2)CC1` [Example 23, 6-((5-oxo-5-(4-(5-(trifluoromethyl)pyrimidin-2-yl)piperazin-1-yl)pentyl)amino)-4-(trifluoromethyl)pyridazin-3(2H)-one], in test [1], the EC50 was determined as 532 nM. For the same compound, at PARP7, the IC50 was found to be 0.521 nM.

Regarding `O=C([C@@H]1CC[C@H](Nc2cc(C(F)(F)F)c(=O)[nH]n2)C1)N1CCN(c2ncc(C(F)(F)F)cn2)CC1` [Example 62, 5-(trifluoromethyl)-3-[[(1S,3R)-3-[4-[5-(trifluoromethyl)pyrimidin-2-yl]piperazine-1-carbonyl]cyclopentyl]amino]-1H-pyridazin-6-one], the EC50 in test [1] is 2200 nM. The compound further returned an IC50 against PARP7 of 1.29 nM.

With `CN(CCCC(=O)N1CCN(c2ncc(C(F)(F)F)cn2)CC1)c1cc(C(F)(F)F)c(=O)[nH]n1` [Example 32, 6-(methyl(4-oxo-4-(4-(5-(trifluoromethyl)pyrimidin-2-yl)piperazin-1-yl)butyl)amino)-4-(trifluoromethyl)pyridazin-3(2H)-one], in test [1], the EC50 came out at 75.6 nM. For the same compound, the IC50 on PARP7 was 0.233 nM.

Take `O=C(Cc1ccccc1-c1cc(C(F)(F)F)c(=O)[nH]n1)N1CCN(c2ncc(C(F)(F)F)cn2)CC1` [Example 4, 6-(2-(2-oxo-2-(4-(5-(trifluoromethyl)pyrimidin-2-yl)piperazin-1-yl)ethyl)phenyl)-4-(trifluoromethyl)pyridazin-3(2H)-one]: in test [1], the EC50 is at least 10000 nM. Also, on PARP7, the IC50 was 36.3 nM.

Regarding `O=C(CC[C@@H]1Cc2ccccc2N1c1cc(C(F)(F)F)c(=O)[nH]n1)N1CCN(c2ncc(C(F)(F)F)cn2)CC1` [Example 50, 3-[(2R)-2-[3-oxo-3-[4-[5-(trifluoromethyl)pyrimidin-2-yl]piperazin-1-yl]propyl]indolin-1-yl]-5-(trifluoromethyl)-1H-pyridazin-6-one], the EC50 in test [1] amounted to 221 nM. Also, inhibition against PARP7 was half-maximal at 0.357 nM (IC50).

Consider `O=C(CCC[C@@H]1CCc2c1n[nH]c(=O)c2C(F)(F)F)N1CCN(c2ncc(C(F)(F)F)cn2)CC1` [Example 78, (R)-7-(4-oxo-4-(4-(5-(trifluoromethyl)pyrimidin-2-yl)piperazin-1-yl)butyl)-4-(trifluoromethyl)-2,5,6,7-tetrahydro-3H-cyclopenta[c]pyridazin-3-one], for which, in test [1], the EC50 is 24.1 nM. On PARP7, this compound gave a 50% inhibitory concentration (IC50) of 0.142 nM.

Turning to `O=C([C@@H]1C[C@@H]1CNc1cc(C(F)(F)F)c(=O)[nH]n1)N1CCN(c2ncc(C(F)(F)F)cn2)CC1` (racemic) [Example 24, Cis-(+)-4-(trifluoromethyl)-6-(((2-(4-(5-(trifluoromethyl)pyrimidin-2-yl)piperazine-1-carbonyl)cyclopropyl)methyl)amino)pyridazin-3(2H)-one], the EC50 in test [1] was determined as 2940 nM. This compound also registered a 50% inhibitory concentration (IC50) against PARP7 of 1.02 nM.

For the compound `O=C(N1CCN(c2ncc(C(F)(F)F)cn2)CC1)N1CCC[C@@H](Nc2cc(C(F)(F)F)c(=O)[nH]n2)C1` [Example 38, (R)-4-(trifluoromethyl)-6-((1-(4-(5-(trifluoromethyl)pyrimidin-2-yl)piperazine-1-carbonyl)piperidin-3-yl)amino)pyridazin-3(2H)-one], the EC50 in test [1] is 1870 nM. On PARP7, this compound had an IC50 of 2.71 nM.

For `O=C(OCCNc1cc(C(F)(F)F)c(=O)[nH]n1)N1CCN(c2ncc(C(F)(F)F)cn2)CC1` [Example 20, 2-((6-oxo-5-(trifluoromethyl)-1,6-dihydropyridazin-3-yl)amino)ethyl4-(5-(trifluoromethyl)pyrimidin-2-yl)piperazine-1-carboxylate], in test [1], the EC50 was at least 10000 nM. Besides, the IC50 against PARP7 came to 1.76 nM.
